This is an account of results in patent US20150011751A1, “NOVEL TRIAZINE DERIVATIVE” (CARNA BIOSCIENCES, INC., priority 2012, published 2015).

The target of the test is Dephosphorylated BTK (Homo sapiens, UniProt Q06187). The experiment in a line: Test of activity inhibition against dephosphorylated BTK (mobility shift assay).
Sequence of Dephosphorylated BTK (Q06187 whole entry): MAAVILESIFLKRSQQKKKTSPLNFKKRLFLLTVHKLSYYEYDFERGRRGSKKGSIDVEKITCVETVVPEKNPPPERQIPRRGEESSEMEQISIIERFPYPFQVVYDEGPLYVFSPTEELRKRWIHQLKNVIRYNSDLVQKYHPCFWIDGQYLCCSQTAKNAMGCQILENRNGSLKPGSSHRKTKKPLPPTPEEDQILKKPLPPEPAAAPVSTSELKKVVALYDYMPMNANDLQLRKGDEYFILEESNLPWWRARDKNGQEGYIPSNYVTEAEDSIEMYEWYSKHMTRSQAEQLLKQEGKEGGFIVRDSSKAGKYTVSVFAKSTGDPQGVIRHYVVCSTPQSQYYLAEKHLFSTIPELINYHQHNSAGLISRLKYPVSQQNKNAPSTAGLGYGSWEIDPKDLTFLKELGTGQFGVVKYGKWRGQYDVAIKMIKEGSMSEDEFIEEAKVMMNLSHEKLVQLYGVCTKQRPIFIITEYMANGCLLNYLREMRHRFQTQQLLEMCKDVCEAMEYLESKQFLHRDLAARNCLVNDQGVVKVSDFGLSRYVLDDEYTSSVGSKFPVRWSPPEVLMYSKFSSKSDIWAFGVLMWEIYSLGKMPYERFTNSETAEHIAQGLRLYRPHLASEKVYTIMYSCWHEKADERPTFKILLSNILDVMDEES
A word on the IC50: it is the concentration at which inhibition is half-maximal. Consider `CC(C)(C)c1ccc(C(=O)Nc2cccc(-c3nc(N)nc(Nc4ccc(OCCOCCO)cc4)n3)c2CO)cc1` [Example 151, N-{3-[4-Amino-6-({4-[2-(2-hydroxyethoxy)eth-oxy]phenyl}amino)-1,3,5-triazin-2-yl]-2-(hy-droxymethyl)phenyl}-4-(tert-butyl)benzamide], for which the IC50 amounted to 1.3 nM.
For `CC(C)(C)c1ccc(C(=O)Nc2cccc(-c3nc(N)nc(Nc4ccc(OCCN5CCCC5)cc4)n3)c2CO)cc1` [Example 152, N-{3-[4-Amino-6-({4-[2-(pyrrolidin-1-yl)eth-oxy]phenyl}amino)-1,3,5-triazin-2-yl]-2-(hy-droxymethyl)phenyl}-4-(tert-butyl)benzamide], the IC50 is 1.2 nM.
Turning to `CC(C)(C)c1ccc(C(=O)Nc2cccc(-c3nc(N)nc(Nc4cccc(C(=O)O)c4)n3)c2CO)cc1` [Example 153, 3-[(4-Amino-6-{3-[4-(tert-butyl)benzamido]-2-(hydroxymethyl)phe-nyl}-1,3,5-triazin-2-yl)amino]benzoic acid], the IC50 is 4.9 nM.
`CC(C)(C)c1ccc(C(=O)Nc2cccc(-c3nc(N)nc(Nc4ccc5c(c4)OCC(=O)N5)n3)c2CO)cc1` [Example 154, N-(3-{4-Amino-6-[(3-oxo-3,4-dihydro-2H-ben-zo[b][1,4]oxazin-7-yl)amino]-1,3,5-triazin-2-yl}-2-(hydroxymeth-yl)benzyl)-4-(tert-bu-tyl)benzamide]: the IC50 came to 0.9 nM.
As for `CC(C)(C)c1ccc(C(=O)Nc2cccc(-c3nc(N)nc(Nc4ccc5c(c4)ncn5CCCO)n3)c2CO)cc1` [Example 155, N-[3-(4-Amino-6-{[1-(3-hydroxypropyl)-1H-benzo[d]imidazol-5-yl]amino}-1,3,5-triazin-2-yl)-2-(hydroxymeth-yl)phenyl]-4-(tert-butyl)benzamide], the IC50 was found to be 0.8 nM.
In the case of `CC(C)(C)c1ccc(C(=O)Nc2cccc(-c3nc(N)nc(Nc4ccc(N5CCOC5=O)cc4)n3)c2CO)cc1` [Example 156, N-[3-(4-Amino-6-{[4-(2-oxooxazolidin-3-yl)phenyl]amino}-1,3,5-tri-azin-2-yl)-2-(hydroxy-methyl)phenyl]-4-(tert-butyl)benzamide], the IC50 came to 0.5 nM.
As for `CCN(CC)CCOc1ccc(Nc2nc(N)nc(-c3cccc(NC(=O)c4ccc(C(C)(C)C)cc4)c3CO)n2)cc1` [Example 159, N-{3-[4-Amino-6-({4-[2-(diethylamino)ethoxy]phenyl}amino)-1,3,5-triazin-2-yl]-2-(hy-droxymethyl)phenyl}-4-(tert-butyl)benzamide], the IC50 came out at 5.9 nM.
On to `CC(C)(C)c1ccc(C(=O)Nc2cccc(-c3nc(N)nc(Nc4ccc(Cn5cccn5)cc4)n3)c2CO)cc1` [Example 160, N-{3-[4-({4-[(1H-Pyra-zol-1-yl)methyl]phenyl}amino)-6-amino-1,3,5-triazin-2-yl]-2-(hy-droxymethyl)phenyl}-4-(tert-butyl)benzamide], for which the half-inhibitory concentration (IC50) worked out at 0.8 nM.
With `CC(C)(C)c1ccc(C(=O)Nc2cccc(-c3nc(N)nc(Nc4cccc(Cn5cccn5)c4)n3)c2CO)cc1` [Example 161, N-{3-[4-({3-[(1H-Pyra-zol-1-yl)methyl]phenyl}amino)-6-amino-1,3,5-triazin-2-yl]-2-(hy-droxymethyl)phenyl}-4-(tert-butyl)benzamide] the figure was 1.1 nM; with `CC(C)(C)c1ccc(C(=O)Nc2cccc(-c3nc(N)nc(Nc4cccc(Cn5cncn5)c4)n3)c2CO)cc1` [Example 162, N-{3-[4-({3-[(1H-1,2,4-Triazol-1-yl)methyl]phenyl}amino)-6-amino-1,3,5-triazin-2-yl]-2-(hydroxymethyl)phe-nyl}-4-(tert-butyl) benzamide], 0.5 nM.
With `CC(C)(C)c1ccc(C(=O)Nc2cccc(-c3nc(N)nc(Nc4cccc(CN5CCOCC5)c4)n3)c2CO)cc1` [Example 163, N-[3-(4-Amino-6-{[3-(morpholinomethyl)phe-nyl]amino}-1,3,5-triazin-2-yl)-2-(hydroxymeth-yl)phenyl]-4-(tert-butyl)benzamide], the IC50 is 1 nM.
Then `CC(C)(C)c1ccc(C(=O)Nc2cccc(-c3nc(N)nc(Nc4ccc(Cn5cncn5)cc4)n3)c2CO)cc1` [Example 164, N-{3-[4-({4-[(1H-1,2,4-Triazol-1-yl)methyl]phenyl}amino)-6-amino-1,3,5-triazin-2-yl]-2-(hydroxymethyl)phe-nyl}-4-(tert-butyl) benzamide], with 0.5 nM; and `CC(C)(C)c1ccc(C(=O)Nc2cccc(-c3nc(N)nc(Nc4cn[nH]c4)n3)c2CO)cc1` [Example 165, N-(3-{4-[(1H-Pyrazol-4-yl)amino]-6-amino-1,3,5-triazin-2-yl}-2-(hydroxymethyl)phenyl)-4-(tert-butyl)benzamide], with 0.7 nM.
Then `CN(C)CCOc1ccc(Nc2nc(N)nc(-c3cccc(NC(=O)c4ccc(C(C)(C)C)cc4)c3CO)n2)cc1` [Example 166, N-{3-[4-Amino-6-({4-[2-(dimethylamino)eth-oxy]phenyl}amino)-1,3,5-triazin-2-yl]-2-(hy-droxymethyl)phenyl}-4-(tert-butyl)benzamide], with 1 nM.
With `CC(C)(C)c1ccc(C(=O)Nc2cccc(-c3nc(N)nc(Nc4ccc(N5CCNC5=O)cc4)n3)c2CO)cc1` [Example 167, N-[3-(4-Amino-6-{[4-(2-oxoimidazolidin-1-yl)phenyl]amino}-1,3,5-triazin-2-yl)-2-(hy-droxymethyl)phenyl]-4-(tert-butyl)benzamide] the figure was 1.6 nM.
On to `Nc1nc(Nc2ccc(N3CCOCC3)cc2)nc(-c2cccc(NC(=O)c3ccc(C(F)(F)F)cc3)c2CO)n1` [Example 168, N-(3-{4-Amino-6-[(4-morpholinophenyl)amino]-1,3,5-triazin-2-yl}-2-(hydroxymethyl)phe-nyl)-4-(trifluorometh-yl)benzamide], for which the IC50 came to 17.6 nM.
Take `Nc1nc(Nc2ccc(N3CCOCC3)cc2)nc(-c2cccc(NC(=O)c3ccc4c(c3)CCC4)c2CO)n1` [Example 171, N-(3-{4-Amino-6-[(4-morpholinophenyl)amino]-1,3,5-triazin-2-yl}-2-(hydroxymethyl)phe-nyl)-2,3-dihydro-1H-indene-5-carboxamide]: the concentration for half-maximal inhibition (IC50) amounted to 26 nM.
With `Cc1nccn1-c1ccc(Nc2nc(N)nc(-c3cccc(NC(=O)c4ccc(C(C)(C)C)cc4)c3CO)n2)cc1` [Example 172, N-[3-(4-Amino-6-{[4-(2-methyl-1H-imidazol-1-yl)phenyl]amino}-1,3,5-triazin-2-yl)-2-(hy-droxymethyl)phenyl]-4-(tert-butyl)benzamide] the figure was 0.6 nM; with `CC(C)(C)c1ccc(C(=O)Nc2cccc(-c3nc(N)nc(Nc4ccc(Cn5ccccc5=O)cc4)n3)c2CO)cc1` [Example 173, N-{3-[4-Amino-6-({4-[(2-oxopyridin-1(2H)-yl)methyl]phenyl}amino)-1,3,5-triazin-2-yl]-2-(hydroxymethyl)phe-nyl}-4-(tert-butyl) benzamide], 0.6 nM; with `CC(C)(C)c1ccc(C(=O)Nc2cccc(-c3nc(N)nc(Nc4ccc(N5CCOCC5)nc4)n3)c2CO)cc1` [Example 174, N-(3-{4-Amino-6-[(6-morpholinopyridin-3-yl)amino]-1,3,5-triazin-2-yl}-2-(hydroxymeth-yl)phenyl)-4-(tert-butyl)benzamide], 1.5 nM.
With `Nc1nc(Nc2ccc(N3CCOCC3)cc2)nc(-c2cccc(NC(=O)c3cc4c(s3)CCC4)c2CO)n1` [Example 175, N-(3-{4-Amino-6-[(4-morpholinophenyl)amino]-1,3,5-triazin-2-yl}-2-(hydroxymethyl)phe-nyl)-5,6-dihydro-4H-cyclopenta[b]thiophene-2-carboxamide], the IC50 stood at 3.6 nM.
For the compound `Nc1nc(Nc2cnn(CCO)c2)nc(-c2cccc(N3CCc4cc(C5CC5)cc(F)c4C3=O)c2CO)n1` [Example 179, 2-[3-(4-Amino-6-{[1-(2-hydroxyethyl)-1H-py-razol-4-yl]amino}-1,3,5-triazin-2-yl)-2-(hy-droxymethyl)phenyl]-6-cyclopropyl-8-fluoro-3,4-dihydroisoquino-lin-1(1H)-one], the IC50 worked out at 0.9 nM.
As for `Nc1nc(Nc2ccc(O)cc2)nc(-c2cccc(N3CCc4cc(C5CC5)cc(F)c4C3=O)c2CO)n1` [Example 182, 2-(3-{4-Amino-6-[(4-hy-droxyphenyl)amino]-1,3,5-triazin-2-yl}-2-(hydroxymethyl)phenyl)-6-cyclopropyl-8-fluoro-3,4-dihydro-isoquinolin-1(2H)-one], the half-inhibitory concentration (IC50) was 3.6 nM.
Then `CN(C)CCCOc1ccc(Nc2nc(N)nc(-c3cccc(N4CCc5cc(C6CC6)cc(F)c5C4=O)c3CO)n2)cc1` [Example 183, 2-{3-[4-Amino-6-({4-[3-(dimethylamino)pro-poxy]phenyl}amino)-1,3,5-triazin-2-yl]-2-(hydroxymethyl)phenyl}-6-cyclopropyl-8-fluoro-3,4-dihydro-isoquinolin-1(2H)-one], with 2.3 nM; and `CC(C)(C)c1ccc(C(=O)Nc2cccc(-c3nc(N)nc(Nc4ccc(OCCO)cc4)n3)c2CO)cc1` [Example 184, N-[3-(4-Amino-6-{[4-(2-hydroxyethoxy)phenyl]amino}-1,3,5-triazin-2-yl)-2-(hydroxymeth-yl)phenyl]-4-(tert-butyl)benzamide], with 0.8 nM.
On to `CC(C)(C)c1ccc(C(=O)Nc2cccc(-c3nc(N)nc(Nc4ccc(-n5ccnc5)cc4)n3)c2CO)cc1` [Example 185, N-[3-(4-{[4-(1H-Imida-zol-1-yl)phenyl]amino}-6-amino-1,3,5-triazin-2-yl)-2-(hydroxymeth-yl)phenyl]-4-(tert-butyl)benzamide], for which the IC50 came to 1.2 nM.
Consider `CC(C)(C)c1ccc(C(=O)Nc2cccc(-c3nc(N)nc(Nc4ccc5[nH]c(C(F)(F)F)nc5c4)n3)c2CO)cc1` [Example 187, N-[3-(4-Amino-6-{[2-(tri-fluoromethyl)-1H-benzo[d]imidazol-5-yl]amino}-1,3,5-triazin-2-yl)-2-(hydroxymeth-yl)phenyl]-4-(tert-butyl)benzamide], for which the IC50 worked out at 5.6 nM.
As for `COc1cc(Nc2nc(N)nc(-c3cccc(NC(=O)c4ccc(C(C)(C)C)cc4)c3CO)n2)cc(OC)c1OCCCO` [Example 188, N-[3-(4-Amino-6-{[4-(3-hyroxypropoxy)-3,5-dimethoxyphenyl]ami-no}-1,3,5-triazin-2-yl)-2-(hydroxymethyl)phe-nyl]-4-(tert-butyl) benzamide], the IC50 was determined as 0.4 nM.
